Data from patent publication US20250034130A1, “Crystal Form of Tolebrutinib, Preparation Method Therefor and Use Thereof” (Principia Biopharma Inc., priority 2021, published 2025).

How the values were obtained:
Assay type in all cases: physicochemical
[1] = Stability at high temperature (80° C., 2 days, purity by UPLC); settings: 2 days
Protocol: (§1) The related substance in the present disclosure was detected by UPLC and the parameters are shown below.
Certain amounts of Form CSII of the present disclosure and the prior art amorphous form were weighted and stored at 80° C. for 2 days, and the purities of the solids before and after storage were determined by UPLC, the results are as shown in Table 4.
Certain amounts of Form CSIII of the present disclosure and the prior art amorphous form were weighted and stored at 80° C. for 2 days, and the purities of the solids before and after storage were determined by UPLC, the results are as shown in Table 11.
Certain amounts of Form CSIV of the present disclosure and the prior art amorphous form were stored at 80° C. for 2 days, and the purities of the solids before and after storage were determined by UPLC, the results are as shown in Table 17.

[2] = Light stability (Chinese Pharmacopoeia method, purity by UPLC); settings: light not less than 1.2×10^6 lux-hr, near-UV not less than 200 W-hr/m^2
From the text: as §1
Certain amounts of Form CSII of the present disclosure and the prior art amorphous form were weighted and stored for about 1 week, in accordance with the method of the Chinese Pharmacopoeia, under the condition that the total illumination of the light source was not less than […] and the energy of the near-ultraviolet lamp was not less than 200 W-hr/m^2, the purities of the solids before and after storage were measured by UPLC and the results are shown in Table 5.
Certain amounts of Form CSIII of the present disclosure and the prior art amorphous form were weighted and stored for about 1 week, in accordance with the method of the Chinese Pharmacopoeia, under the condition that the total illumination of the light source was not less than 1.2×10^6 lux-hr and the energy of the near-ultraviolet lamp was not less than 200 W-hr/m^2, the purities of the solids before and after storage were measured by UPLC and the results are shown in Table 12.
Certain amounts of Form CSIV of the present disclosure and the prior art amorphous form were weighted and stored for about 1 week, in accordance with the method of the Chinese Pharmacopoeia, under the condition that the total illumination of the light source was not less than 1.2×10^6 lux-hr and the energy of the near-ultraviolet lamp was not less than 200 W-hr/m^2, the purities of the solids before and after storage were measured by UPLC and the results are shown in Table 18.

[3] = Physical and chemical stability on storage in opened packages (purity by UPLC, solid form by XRPD); settings: for Chemical purity after storage (in words): 60° C./75% RH (b74 also name 80° C. and light)
Protocol: X-ray powder diffraction patterns in the present disclosure were acquired by a Bruker X-ray powder diffractometer. The parameters of the X-ray powder diffraction method of the present disclosure are as follows: • X-Ray: Cu, Kα • Kα1 (Å): 1.54060; Kα2 (Å): 1.54439 • Kα2/Kα1 intensity ratio: 0.50
as §1
Said “room temperature” is not a specific temperature, but a temperature range of 10-30° C. Said “open packaged” is putting the sample into a glass vial, covering the vial with aluminum foil, and punching 5-10 holes on the foil.
Form CSII of the present disclosure and the prior art amorphous form were weighed and stored under 25° C./60% RH, 40° C./75% RH and 60° C./75% RH conditions, in opened packages, respectively. The purity and solid form were determined by UPLC and XRPD. The results are listed in Table 3, and the overlaid XRPD patterns of Form CSII before and after storage for stability evaluation are shown in FIG. 4.
Form CSIII of the present disclosure and the prior art amorphous form were weighed and stored under 25° C./60% RH, 40° C./75% RH and 60° C./75% RH conditions, in opened packages, respectively. The purity and solid form were determined by UPLC and XRPD. The results are listed in Table 10, and the overlaid XRPD patterns of Form CSIII before and after storage for stability evaluation are shown in FIG. 9.
Form CSIV of the present disclosure and the prior art amorphous form were weighed and stored under 25° C./60% RH and 40° C./75% RH conditions, in opened packages, respectively. The purity and solid form were determined by UPLC and XRPD. The results are listed in Table 16, and the overlaid XRPD patterns of Form CSIV before and after storage for stability evaluation are shown in FIG. 15.

[4] = Hygroscopicity by DVS (0% RH-95% RH-0% RH at 25° C.); settings: 25° C.; for Weight gain at 80% RH: DVS; for Hygroscopicity class: weight gain at 80% RH
Protocol: DVS was measured via an SMS (Surface Measurement Systems Ltd.) intrinsic DVS instrument.
Parameters for DVS method are as follows: • Temperature: 25° C. • Gas and flow rate: nitrogen, 200 mL/min • RH range: 0% RH to 95% RH • ^1H NMR were collected from a Bruker Avance II DMX 400M HZ NMR spectrometer. 1-5 mg of sample was weighed and dissolved in 0.5 mL of deuterated dimethyl sulfoxide to obtain a solution with a concentration of 2-10 mg/mL.
Certain amounts of Form CSII of the present disclosure and the prior art amorphous form were sampled for hygroscopicity tests using DVS instrument. The weight change at each relative humidity was recorded during the cycle of 0% RH-95% RH-0% RH at 25° C.
Description and definition of hygroscopicity (general notice 9103 drug hygroscopicity test guidelines in 2020 edition of Chinese Pharmacopoeia, experimental condition: 25±1° C., 80±2% RH):
Certain amounts of Form CSIII of the present disclosure and the prior art amorphous form were sampled for hygroscopicity tests using DVS instrument. The weight change at each relative humidity was recorded during the cycle of 0% RH-95% RH-0% RH at 25° C.
Certain amounts of Form CSIV of the present disclosure and the prior art amorphous form were sampled for hygroscopicity tests using DVS instrument. The weight change at each relative humidity was recorded during the cycle of 0% RH-95% RH-0% RH at 25° C.

[5] = 25° C./60% RH, 6 months, open package
[6] = 40° C./75% RH, 2 months, open package
[7] = 40° C./75% RH, 6 months, open package
[8] = 60° C./75% RH, 1 month, open package
[9] = listed as prior art amorphous form

Q: What does the source list for `C=CC(=O)N1CCC[C@@H](n2c(=O)n(-c3ccc(Oc4ccccc4)cc3)c3c(N)nccc32)C1` [Amorphous, (R)-1-(1-acryloylpiperidin-3-yl)-4-amino-3-(4-phenoxyphenyl)-1H-imidazo[4,5-c] pyridin-2(3H)-one, reference compound]?
A: Purity change ([1]; glass vial with cap): −1.16%; Chemical purity (in words) ([1]; listed as amorphous form): significant degradation; Purity change ([2]; 1 week): −0.11%; Chemical purity (in words) ([2]; about 1 week, listed as amorphous form): significant degradation; Purity [3, 5]: 99.57%; Purity change [3, 5]: −0.23%; Solid form [3, 5]: Amorphous; The number of the purities exceeding the qualification thresholds [3, 5]: 1; Chemical purity after storage (in words) ([3]; 25° C./60% RH, 40° C./75% RH, listed as prior art amorphous form): decreased significantly; Chemical purity after storage (in words) ([3]; 25° C./60% RH, 40° C./75% RH, listed as prior art solid): decreases significantly; Purity decrease ([3]; 40° C./75% RH, 2 months): 2.18%; Purity [3, 6]: 97.62%; Purity change [3, 6]: −2.18%; Solid form [3, 6]: Amorphous; Purity decrease ([3]; 40° C./75% RH, 6 months): 3.46%; Purity [3, 7]: 96.34%; Purity change [3, 7]: −3.46%; Solid form [3, 7]: Amorphous; The number of the purities exceeding the qualification thresholds [3, 7]: 4; The number of the purities exceeding the qualification thresholds ([3]; 40° C./75% RH, 6 months, open package, listed as prior art amorphous form): four; The number of the purities exceeding the qualification thresholds ([3]; 40° C./75% RH, 6 months, open package, listed as prior art solid): four; Purity decrease ([3]; 60° C./75% RH, 1 month): over 6.3%; Purity [3, 8]: 93.48%; Purity change [3, 8]: −6.32%; Solid form [3, 8]: Amorphous; The number of the purities exceeding the qualification thresholds [3, 8]: 4; The number of the purities exceeding the qualification thresholds ([3]; 60° C./75% RH, 1 month, open package, listed as prior art amorphous form): four; The number of the purities exceeding the qualification thresholds ([3]; 60° C./75% RH, 1 month, open package, listed as prior art solid): four; Purity ([3]; Initial): 99.80%; Solid form ([3]; Initial): Amorphous; The number of the purities exceeding the qualification thresholds ([3]; Initial, ICH Q3A (R2) thresholds): 1; Weight gain at 80% RH ([4]; listed as Prior art solid): 3.69%; Weight gain at 80% RH ([4]; listed as The prior art amorphous form): 3.69%; Weight gain at 80% RH [4, 9]: 3.69%; Weight gain at 80% RH ([4]; listed as prior art solid): 3.69%; Hygroscopicity class [4, 9]: hygroscopic; Hygroscopicity class ([4]; listed as prior art solid): hygroscopic
